A value given as a limit tells only on which side of the number the result lay.

Chain of Choline kinase (Saccharomyces cerevisiae) (P20485 whole entry, looked up): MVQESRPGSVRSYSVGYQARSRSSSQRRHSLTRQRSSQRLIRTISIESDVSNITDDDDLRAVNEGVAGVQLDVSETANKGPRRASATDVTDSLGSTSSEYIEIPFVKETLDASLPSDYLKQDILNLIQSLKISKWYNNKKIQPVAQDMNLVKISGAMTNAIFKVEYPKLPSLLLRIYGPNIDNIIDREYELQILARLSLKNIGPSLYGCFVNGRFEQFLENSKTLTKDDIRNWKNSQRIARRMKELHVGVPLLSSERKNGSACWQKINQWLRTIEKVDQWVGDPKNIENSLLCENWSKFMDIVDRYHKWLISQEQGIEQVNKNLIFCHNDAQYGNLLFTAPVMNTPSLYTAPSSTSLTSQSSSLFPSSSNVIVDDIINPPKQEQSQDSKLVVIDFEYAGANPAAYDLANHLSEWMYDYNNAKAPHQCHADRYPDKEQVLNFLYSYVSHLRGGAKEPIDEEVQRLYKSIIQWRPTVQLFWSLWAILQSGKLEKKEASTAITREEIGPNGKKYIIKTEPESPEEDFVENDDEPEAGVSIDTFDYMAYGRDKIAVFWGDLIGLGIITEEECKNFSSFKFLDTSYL

This test addresses Choline kinase (Saccharomyces cerevisiae) (UniProt P20485). Description: Compound was tested […] for inhibition against purified choline kinase obtained from yeast.
For the compound `c1cc(Cn2ccc(=[N+]3CCCC3)cc2)ccc1CCc1ccc(Cn2ccc(=[N+]3CCCC3)cc2)cc1` [1,2-di[4-(4-tetrahydro-1H-1-pyrrolyl-1-pyridiniumylmethyl)phenyl]ethane dibromide], the IC50 was determined as 20 µM. The value for `N=c1ccn(Cc2ccc(CCc3ccc(Cn4ccc(=N)cc4)cc3)cc2)cc1` [1-{4-[4-(4-amino-1-pyridiniumylmethyl)phenethyl]benzyl}-4-pyridiniumamine dibromide] was 23 µM; that for `N#Cc1cc[n+](Cc2ccc(CCc3ccc(C[n+]4ccc(C#N)cc4)cc3)cc2)cc1` [1-{4-[4-(4-cyano-1-pyridiniumylmethyl)phenethyl]benzyl}-4-pyridiniumcarbonitrile dibromide] was > 1000 µM; that for `O=C(O)c1cc[n+](Cc2ccc(CCc3ccc(C[n+]4ccc(C(=O)O)cc4)cc3)cc2)cc1` [1-{4-[4-(4-carboxy-1-pyridiniumylmethyl)phenethyl]benzyl}-4-pyridiniumcarboxylic acid dibromide] was 137 µM. `C=CC[N+](CC=C)=c1ccn(Cc2ccc(CCc3ccc(Cn4ccc(=[N+](CC=C)CC=C)cc4)cc3)cc2)cc1` [4N,4N-diallyl-1-{4-[4-(4-diallylamino-1-pyridiniumylmethyl)phenethyl]benzyl}-4-pyridiniumamine dibromide] came in with a concentration for half-maximal inhibition (IC50) of 17 µM. The result for `C[N+](C)=c1ccn(Cc2ccc(CCc3ccc(Cn4ccc(=[N+](C)C)cc4)cc3)cc2)cc1` [4N,4N-dimethyl-1-{4-[4-(4-dimethylamino-1-pyridiniumylmethyl)phenethyl]benzyl}-4-pyridiniumamine dibromide] reads 17 µM. The value for `OCc1cc[n+](Cc2ccc(CCc3ccc(C[n+]4ccc(CO)cc4)cc3)cc2)cc1` [1-{4-[4-(4-hydroxymethyl-1-pyridiniumylmethyl)phenethyl]benzyl}-4-pyridiniumylmethanol dibromide] was 100 µM; that for `c1cc(Cn2ccc(=[N+]3CCCCCC3)cc2)ccc1CCc1ccc(Cn2ccc(=[N+]3CCCCCC3)cc2)cc1` [1,2-di{4-[4-(1-azepanyl)-1-pyridiniumylmethyl]phenyl}ethane dibromide] was 15 µM.

For `Cc1cc[n+](Cc2ccc(CCc3ccc(C[n+]4ccc(C)cc4)cc3)cc2)cc1` [1,2-di[4-(4-methyl-1-pyridiniumylmethyl)phenyl]ethane dibromide], half-maximal inhibition (IC50) was put at 100 µM. The result for `c1cc(Cn2ccc(=[N+]3CCCCC3)cc2)ccc1CCc1ccc(Cn2ccc(=[N+]3CCCCC3)cc2)cc1` [1,2-di[4-(4-hexahydro-1-pyridinyl-1-pyridiniumylmethyl)phenyl]ethane dibromide] reads 9.6 µM.
